# Experiments:
# [1] = test system: isolated forebrain mitochondria; assay: Oligomycin-induced state 4 respiration and ΔΨm in isolated forebrain mitochondria; type: biochemical; settings: for effect on GABA- or Ub5-induced respiration/leak: added after GABA or Ub5, picrotoxin 1 mM, PLP 10 mM
# Method: Turning to FIGS. 10a and b, oligomycin-induced state 4 was initiated in isolated forebrain mitochondria using succinate. Tracings of O2 consumption (FIG. 10a) with simultaneous ΔΨm measurement (FIG. 10b) are depicted. Numbers (FIG. 10a) are rates of respiration (nmol·mL-1·min-1·mg mitochondrial protein-1). GABA (10 mM) or Ub5 ([…]) were added. Aralar was inhibited with pyridoxal 5′-phosphate (PLP)(10 mM). Picrotoxin (GABAA receptor antagonist (1 mM)) and GABA or Ub5 alone served as controls. Black solid lines are slopes of ΔΨm prior to and after inhibitor. Decrease in respiration rate with concomitant stabilization or rise in ΔΨm indicates inhibition of leak. […] Thus, PLP blocked GABA import via Aralar. […] Aralar is best described as an aspartate-glutamate carrier within mitochondria. Aralar is the solute that exports aspartate from neuronal mitochondria in exchange for glutamate plus a proton. Thus, Aralar causes leak by translocating protons across the inner mitochondrial membrane during solute transport. Aralar causes leak that can degrade ΔΨm. Aralar is a neuronal transporter that sequesters GABA within the mitochondrial matrix. Many anesthetic agents bind to the GABAA receptor and potentiate GABAergic signaling.
# isolated mitochondria = assay: Complex II-dependent state 4 (leak) respiration with simultaneous mitochondrial membrane potential measurement; type: biochemical; settings: succinate in the presence of oligomycin, FIG. 1
# From the text: FIGS. 1a-c are representative tracings of complex II-dependent state 4 respiration (leak respiration) using succinate in the presence of oligomycin are depicted above and tracings of simultaneously measured mitochondrial membrane potential (ΔΨ) are shown below, for (a) propofol, (b) decylubiquinone, and (c) ubiquinone-5;
# In FIG. 1, representative tracings of Complex II-dependent state 4 respiration (leak respiration) using succinate in the presence of oligomycin are depicted in the top three curves and tracings of simultaneously measured mitochondrial membrane potential (ΔΨ) are shown in the bottom three curves. The numbers in the tracings above show rates of oxygen consumption (nmol·mL-1·min-1·mg mitochondrial protein-1). Addition of propofol (FIG. 1 a) decylubiquinone (DB) (FIG. 1b) or ubiquinone-5 (FIG. 1c) are indicated. ΔΨ was determined as a function of triphenylphosphonium (TPP+) concentration in the bath. […] This mechanism is highly reminiscent of the effect of the anesthetic, propofol (FIG. 1a), in isolated mitochondria.
# [2] = test system: isolated perfused murine hearts; assay: Surface ECG of isolated perfused murine hearts; settings: isolated perfused heart
# Method: In FIGS. 2a and 2b, surface ECGs were recorded continuously for isolated perfused murine hearts that were prepared and stabilized. Hearts were exposed to either decylubiquinone or ubiquione-5. […] Thus, quinone analogs suppressed electrical signaling in the heart in a reversible manner.
molecule,measurement,setting,value
NCCCC(=O)O [GABA],proton leak (respiration and ΔΨm),"[1]; succinate, oligomycin-induced state 4, GABA (10 mM) or Ub5 (100 mM), FIG. 10",induced a slow increase in proton leak
CCCCCCCCCCC1=C(C)C(=O)C(OC)=C(OC)C1=O [decylubiquinone],proton leak (state 4 respiration),isolated mitochondria,increased proton leak
same,mitochondrial membrane potential (ΔΨ),isolated mitochondria; determined via TPP+,decline in ΔΨ
same,ECG upon cessation of exposure and washout,[2]; after washout,sinus rhythm normalized
same,surface ECG effect during exposure,"[2]; during exposure, FIG. 2",rapidly induced bradycardia that persisted throughout the duration of exposure
"Cc1ncc(COP(=O)(O)O)c(C=O)c1O [PLP, pyridoxal 5′-phosphate]",effect on ΔΨm after GABA or Ub5,[1]; PLP 10 mM added after GABA or Ub5,stabilized ΔΨm
same,effect on ΔΨm with Ub5,[1]; PLP 10 mM added after Ub5,acutely increased ΔΨm
same,effect on GABA- or Ub5-induced respiration/leak,[1],normalized respiration to pre-GABA or Ub5 levels
Picrotoxin,effect on GABA- or Ub5-induced respiration/leak,[1],minimal effect
